Source: patent US12304912B2, “Fused bicyclic RAF inhibitors and methods for use thereof” (Jazz Pharmaceuticals Ireland Limited, priority 2020, dated 2025)
Where a name gives a salt, the structure may show the parent alone. Read-outs that look alike come from different tables or passages of the source.

How the values were obtained:
[1] = system: constitutive ERK phosphorylation in WiDr cells; assay: WiDr AlphaLISA SureFire pERK1/2 cellular assay; type: cell-based, human; settings: Homo sapiens, WiDr cells, 2 hr, read-out: pERK WiDr (2 hr) Abs pIC50 (converted)
Procedure: The human HCT-116 colorectal carcinoma cell line (ATCC CCL-247) endogenously expresses the KRAS^G13D mutation, which leads to constitutive activation of the MAP kinase pathway and phosphorylation of ERK. […] Assay read outs took place 2 or 24 hours after dosing with compounds. On the first day, HCT-116 cells were harvested, resuspended in growth medium (McCoys5A with Glutamax (Life Technologies 36600021) and 10% heat-inactivated fetal bovine serum (Sigma F9665)), and counted. Cells were plated in 100 μl per well in each well of a 96-well culture dish (Sigma CLS3598) to a final density of 30,000 (2 hr read) or 15,000 (24 hr read) cells per well and incubated over night at 37° C. and 5% CO2. On day 2, the growth medium was exchanged for dosing medium (McCoys5A with Glutamax (Life Technologies 36600021) and 1% heat-inactivated fetal bovine serum (Sigma F9665)) and the cells were dosed with compounds to produce a 10-point dose response, where the top concentration was 1 μM and subsequent concentrations were at 1/3 log dilution intervals. A matched DMSO control was included. The cells were subsequently incubated for either 2 or 24 hours at 37° C. and 5% CO2. After incubation, media was removed and the cells were incubated with lysis buffer containing phosphatase inhibitors for 15 minutes at room temperature. Cell lysates were transferred to a 12 area 96 well white Optiplate™ (Perkin Elmer 6005569) and incubated with anti-mouse IgG acceptor beads, a biotinylated anti-ERK1/2 rabbit antibody recognizing both phosphorylated and non-phosphorylated ERK1/2, a mouse antibody targeted to the Thr202/Tyr204 epitope and recognizing phosphorylated ERK proteins only, and streptavidin-coated donor beads. The biotinylated antibody binds to the streptavidin-coated donor beads and the phopsho-ERK1/2 antibody binds to the acceptor beads. Plates were read on an EnVision reader (Perkin Elmer) and excitation of the beads at 680 nm with a laser induced the release of singlet oxygen molecules from the donor beads that trigger energy transfer to the acceptor beads in close proximity, producing a signal that can be measured at […]. Both antibodies bound to phosphorylated ERK proteins, bringing the donor and acceptor beads into close proximity. All data were analyzed using the Dotmatics or GraphPad Prism software packages. Inhibition of ERK phosphorylation was assessed by determination of the absolute IC50 value, which is defined as the concentration of compound required to decrease the level of phosphorylated ERK proteins by 50% when compared to DMSO control.
WiDr AlphaLISA SureFire pERK1/2 Cellular Assay
The human WiDr colorectal adenocarcinoma cell line (ATCC CCL-218) endogenously expresses the BRAF^V600E mutation, which leads to constitutive activation of the MAP kinase pathway and phosphorylation of ERK. […] The main procedure is essentially the same as for HCT-116 cells (above), with the following adjustments to the growth medium (Eagle's Minimum Essential Medium (Sigma M2279) with 1× Glutamax (Life Technologies 35050038), 1× Sodium-Pyruvate (Sigma S8636), and 10% heat-inactivated fetal bovine serum (Sigma F9665)), the dosing medium (Eagle's Minimum Essential Medium (Sigma M2279) with 1× Glutamax (Life Technologies 35050038), 1× Sodium-Pyruvate (Sigma S8636), and 1% heat-inactivated fetal bovine serum (Sigma F9665)), and the seeding densities (2 hr: 50,000 cells per well; 24 hr: 35,000 cells per well). Moreover, the compounds were dosed in 1/2 log dilution intervals with the top concentration of 10 μM.

[2] = system: RAF dimers in HCT-116 cells; assay: HCT-116 AlphaLISA SureFire pERK1/2 cellular assay (dimer); type: cell-based; settings: Homo sapiens
How it was run: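 HCT-116 (KRAS G13D) cells, 30,000/well, pretreated 1 h with 1 μM Encorafenib to induce RAF dimers, washed, then dosed 1 h at 37° C with compound (10-point, top 10 μM, 1/2 log steps) in growth medium. pERK1/2 (T202/Y204) measured by AlphaLISA SureFire; absolute IC50 versus DMSO control.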

[3] = Microsomal stability assay, human liver microsomes (HLM); type: in vitro ADME; settings: 0.5 mg/mL protein, 1 μM substrate
How it was run: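 Substrate depletion: 1 μM compound incubated at 37° C. with cryopreserved mouse or human liver microsomes at 0.5 mg·mL^−1 protein. Timed aliquots quenched in ice-cold organic solvent and measured by LC-MS/MS; t1/2 and CLint derived from the slope of ln % remaining versus time.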

[4] = HCT-116, HCT116 cells, dimer, 1 hr, read-out: pERK HCT116 dimer (1 hr) plC50 (converted)
[5] = HCT-116, HCT116 cells pre-dosed with 1 μM Encorafenib, 1 hr, read-out: pERK HCT116 dimer (1 hr) pIC50 (converted)

Structure (SMILES) | IC50 ([1]; Abs) | IC50 [2, 4] | microsomal CLint at 1 μM ([3]; 37° C.) | IC50 ([1]; absolute IC50) | IC50 ([2]; HCT-116, 1 h, read-out: pERK HCT116 dimer (1 hr) pIC50 (converted)) | microsomal CLint at 1 μM [3] | IC50 [2, 5]
CC(C)CCc1c[nH]c(C2COc3ccc(Oc4ccnc5c4CCC(=O)N5)cc3C2)n1 (stereo not drawn) [Compound 116] | 39.8 nM | 87.1 nM | 277 µL/min/mg | – | – | – | –
O=C1CCc2c(Oc3ccc4c(c3)CN(c3nc(-c5ccccc5)n[nH]3)CC4)ccnc2N1 [Compound 44, 5-[[2-(3-phenyl-1H-1,2,4-triazol-5-yl)-3,4-dihydro-1H-isoquinolin-7-yl]oxy]-3,4-dihydro-1H-1,8-naphthyridin-2-one hydrochloride] | – | – | – | 355 nM | 288 nM | 14.2 µL/min/mg | –
Cc1cc(-c2c[nH]c(C3COc4ccc(Oc5ccnc6c5CCC(=O)N6)cc4C3)n2)ccn1 (stereo not drawn) [Compound 117, 5-[3-[4-(2-methyl-4-pyridyl)-1H-imidazol-2-yl]chroman-6-yl]oxy-3,4-dihydro-1H-1,8-naphthyridin-2-one] | 589 nM | 110 nM | 43.3 µL/min/mg | – | – | – | –
O=C(Cn1ccnc1)Nc1cc(Oc2ccc3c(c2)CC(c2nc(-c4ccccc4)c[nH]2)CO3)ccn1 (stereo not drawn) [Compound 144] | 95.5 nM | 60.3 nM | 27.1 µL/min/mg | – | – | – | –
CC1CC1C(=O)Nc1cc(Oc2ccc3c(c2)CC(c2nc(-c4ccccc4)c[nH]2)CO3)ccn1 (stereo not drawn) [Compound 157] | 275 nM | 174 nM | 35.7 µL/min/mg | – | – | – | –
Cn1nc(C(F)(F)F)cc1-c1c[nH]c(C2COc3ccc(Oc4ccnc5c4CCC(=O)N5)cc3C2)n1 (stereo not drawn) [Compound 107, 5-[3-[4-[2-methyl-5-(trifluoromethyl)pyrazol-3-yl]-1H-imidazol-2-yl]chroman-6-yl]oxy-3,4-dihydro-1H-1,8-naphthyridin-2-one] | 209 nM | 57.5 nM | 30.3 µL/min/mg | – | – | – | –
O=C1CCc2c(Oc3ccc4c(c3)CC(c3nc5cc(C(F)(F)F)ncc5[nH]3)CO4)ccnc2N1 (racemic) [Compound 32] | – | – | – | 204 nM | – | 11.3 µL/min/mg | 398 nM
CN1CCC(C(=O)Nc2cc(Oc3ccc4c(c3)CC(c3nc(-c5ccccc5)c[nH]3)CO4)ccn2)CC1 (stereo not drawn) [Compound 147, 1-methyl-N-[4-[3-(4-phenyl-1H-imidazol-2-yl)chroman-6-yl]oxy-2-pyridyl]piperidine-4-carboxamide] | 871 nM | 437 nM | 10.4 µL/min/mg | – | – | – | –
N#Cc1ccc2[nH]c(C3COc4ccc(Oc5ccnc6c5CCC(=O)N6)cc4C3)nc2c1 (stereo not drawn) [Compound 24] | – | – | – | 501 nM | – | 12.7 µL/min/mg | 155 nM
O=C(CN1CCCC1)Nc1cc(Oc2ccc3c(c2)CC(c2nc(-c4ccccc4)c[nH]2)CO3)ccn1 (stereo not drawn) [Compound 152] | 219 nM | 275 nM | 29 µL/min/mg | – | – | – | –
Cc1cc(-c2c[nH]c(C3COc4ccc(Oc5ccnc6c5CCC(=O)N6)cc4C3)n2)n(C)n1 (stereo not drawn) [Compound 106, 5-[3-[4-(2,5-dimethylpyrazol-3-yl)-1H-imidazol-2-yl]chroman-6-yl]oxy-3,4-dihydro-1H-1,8-naphthyridin-2-one] | 589 nM | 123 nM | 10.5 µL/min/mg | – | – | – | –
O=C1CCc2c(Oc3ccc4c(c3)CN(c3nc5cc(C(F)(F)F)ccc5[nH]3)CC4)ccnc2N1 [Compound 160] | 219 nM | 347 nM | 2.7 µL/min/mg | – | – | – | –
O=C1CCc2c(Oc3ccc4c(c3)CC(c3nc(-c5cccc(C(F)(F)F)c5)c[nH]3)CO4)ccnc2N1 (stereo not drawn) [Compound 12, 5-[3-[4-[3-(trifluoromethyl)phenyl]-1H-imidazol-2-yl]chroman-6-yl]oxy-3,4-dihydro-1H-1,8-naphthyridin-2-one] | – | – | – | 123 nM | – | 88.6 µL/min/mg | 229 nM
O=C1CCc2c(Oc3ccc4c(c3)CC(c3nc5ccncc5[nH]3)CO4)ccnc2N1 (stereo not drawn) [Compound 134, 5-[3-(3H-imidazo[4,5-c]pyridin-2-yl)chroman-6-yl]oxy-3,4-dihydro-1H-1,8-naphthyridin-2-one] | 6170 nM | 32.4 nM | 13.6 µL/min/mg | – | – | – | –
Cc1cc2nc(C3COc4ccc(Oc5ccnc6c5CCC(=O)N6)cc4C3)[nH]c2cc1C (stereo not drawn) [Compound 29] | – | – | – | 107 nM | – | 119 µL/min/mg | 219 nM
COc1ccsc1-c1c[nH]c(C2COc3ccc(Oc4ccnc5c4CCC(=O)N5)cc3C2)n1 (stereo not drawn) [Compound 123] | 33.9 nM | 58.9 nM | 97.5 µL/min/mg | – | – | – | –
O=C(CN1CC(O)C1)Nc1cc(Oc2ccc3c(c2)CC(c2nc(-c4ccccc4)c[nH]2)CO3)ccn1 (stereo not drawn) [Compound 153] | 288 nM | 126 nM | 19.2 µL/min/mg | – | – | – | –
CCn1nc(C)cc1-c1c[nH]c(C2COc3ccc(Oc4ccnc5c4CCC(=O)N5)cc3C2)n1 (stereo not drawn) [Compound 124, 5-[3-[4-(2-ethyl-5-methyl-pyrazol-3-yl)-1H-imidazol-2-yl]chroman-6-yl]oxy-3,4-dihydro-1H-1,8-naphthyridin-2-one] | 661 nM | 269 nM | 65.8 µL/min/mg | – | – | – | –
COc1cc(-c2c[nH]c(C3COc4ccc(Oc5ccnc6c5CCC(=O)N6)cc4C3)n2)ccn1 (stereo not drawn) [Compound 19, 5-[3-[4-(2-methoxy-4-pyridyl)-1H-imidazol-2-yl]chroman-6-yl]oxy-3,4-dihydro-1H-1,8-naphthyridin-2-one] | – | – | – | 1100 nM | – | 27.8 µL/min/mg | 347 nM
O=C1CCc2c(Oc3ccc4c(c3)CC(c3nc(-c5ccc(C(F)(F)F)nc5)c[nH]3)CO4)ccnc2N1 (stereo not drawn) [Compound 127, 5-[3-[4-[6-(trifluoromethyl)-3-pyridyl]-1H-imidazol-2-yl]chroman-6-yl]oxy-3,4-dihydro-1H-1,8-naphthyridin-2-one] | – | 158 nM | 38.7 µL/min/mg | – | – | – | –
O=C(Nc1cc(Oc2ccc3c(c2)CC(c2nc(-c4ccccc4)c[nH]2)CO3)ccn1)C1CC(F)(F)C1 (stereo not drawn) [Compound 139] | – | 219 nM | 99.8 µL/min/mg | – | – | – | –
O=C(Nc1cc(Oc2ccc3c(c2)CC(c2nc(-c4ccccc4)c[nH]2)CO3)ccn1)C1(F)CC1 (stereo not drawn) [Compound 138] | – | 813 nM | 134 µL/min/mg | – | – | – | –
Cn1nc(C2CC2)cc1-c1c[nH]c(C2COc3ccc(Oc4ccnc5c4CCC(=O)N5)cc3C2)n1 (stereo not drawn) [Compound 125, 5-[3-[4-(5-cyclopropyl-2-methyl-pyrazol-3-yl)-1H-imidazol-2-yl]chroman-6-yl]oxy-3,4-dihydro-1H-1,8-naphthyridin-2-one] | 977 nM | 138 nM | – | – | – | – | –
O=C1CCc2c(Oc3ccc4c(c3)CC(c3nc(-c5cccnc5C(F)(F)F)c[nH]3)CO4)ccnc2N1 (stereo not drawn) [Compound 128, 5-[3-[4-[2-(trifluoromethyl)-3-pyridyl]-1H-imidazol-2-yl]chroman-6-yl]oxy-3,4-dihydro-1H-1,8-naphthyridin-2-one] | – | 263 nM | – | – | – | – | –
